Data from patent US10450270B2, “Glyoxamide substituted pyrrolamide derivatives and the use thereof as medicaments for the treatment of hepatitis B” (Janssen Sciences Ireland UC, priority 2013, dated 2019).

Columns and labels:
HBV [1] = experiment: Anti-HBV activity, HepG2.117 inducible HBV producing cell line (Tet-off), intracellular HBV DNA by realtime PCR; type: cell-based; settings: Hepatitis B virus, 72 h; HepG2.117 cells, 3 days of treatment, intracellular HBV DNA; read-out: HepG2 117 EC50
[2] = Cytotoxicity in HepG2 cells, Resazurin viability assay; settings: human, HepG2 cells
HBV [3] = experiment: Anti-HBV activity, HepG2.2.15 stable transfected cell line, HBV DNA from secreted virions by realtime PCR; type: cell-based; settings: Hepatitis B virus, 144 h; HepG2.2.15 cells, 6 days of treatment, HBV DNA from secreted virions; read-out: HepG 2.2.15 EC50

Compound | EC50 (HBV [1]) | CC50 at 4 days [2] | EC50 (HBV [3])
Cc1cc(NC(=O)c2cc(C(=O)C(=O)NC(C)(C)C(N)=O)cn2C)ccc1F [Compound 8, 4-{[(2-Amino-1,1-dimethyl-2-oxoethyl)amino](oxo)acetyl}-N-(4-fluoro-3-methylphenyl)-1-methyl-1H-pyrrole-2-carboxamide] | 0.038 µM | > 25 µM | 0.052 µM
Cc1c(C(=O)C(=O)NC(C)(C)C)cn(C)c1C(=O)Nc1ccc(F)c(F)c1 [Compound 21, 4-[(tert-Butylamino)(oxo)acetyl]-N-(3,4-difluorophenyl)-1,3-dimethyl-1H-pyrrole-2-carboxamide] | 0.011 µM | > 25 µM | 0.009 µM
Cn1cc(C(=O)C(=O)NC(C)(C)C)cc1C(=O)Nc1ccc(F)c(C#N)c1 [Compound 15, 4-(2-(tert-butylamino)-2-oxoacetyl)-N-(3-cyano-4-fluorophenyl)-1-methyl-1H-pyrrole-2-carboxamide] | 0.043 µM | > 25 µM | 0.027 µM
Cc1c(C(=O)C(=O)NC2(C)CC(F)(F)C2)cc(C(=O)Nc2ccc(F)c(C#N)c2)n1C [Compound 56, N-(3-cyano-4-fluoro-phenyl)-4-[2-[(3,3-difluoro-1-methyl-cyclobutyl)-amino]-2-oxo-acetyl]-1,5-dimethyl-pyrrole-2-carboxamide] | 0.005 µM | > 25 µM | 
Cc1c(C(=O)C(=O)NC(C)(C)C(F)(F)F)cc(C(=O)Nc2ccc(F)c(C#N)c2)n1C [Compound 58, N-(3-cyano-4-fluoro-phenyl)-1,5-dimethyl-4-[2-oxo-2-[(2,2,2-trifluoro-1,1-dimethyl-ethyl)amino]acetyl]pyrrole-2-carboxamide] | 0.006 µM | > 25 µM | 
COCC(C)(NC(=O)C(=O)c1cc(C(=O)Nc2ccc(F)c(C#N)c2)n(C)c1C)C(F)(F)F (stereo not shown) [Compound 80, N-(3-cyano-4-fluoro-phenyl)-1,5-dimethyl-4-[2-oxo-2-[[2,2,2-trifluoro-1-(methoxymethyl)-1-methyl-ethyl]amino]acetyl]pyrrole-2-carboxamide] | 0.007 µM | > 25 µM | 
Cc1c(C(=O)C(=O)NC(C)C)cc(C(=O)Nc2ccc(F)c(C#N)c2)n1C [Compound 52, N-(3-cyano-4-fluoro-phenyl)-4-[2-(isopropylamino)-2-oxo-acetyl]-1,5-dimethyl-pyrrole-2-carboxamide] | 0.067 µM | > 25 µM | 
Cc1c(C(=O)C(=O)NC2(C(F)(F)F)CCC(O)CC2)cc(C(=O)Nc2ccc(F)c(C#N)c2)n1C (stereo not shown) [Compound 82, N-(3-cyano-4-fluoro-phenyl)-4-[2-[[4-hydroxy-1-(trifluoromethyl)cyclo-hexyl]amino]-2-oxo-acetyl]-1,5-dimethyl-pyrrole-2-carboxamide] | 0.003 µM | > 25 µM | 
C[C@@H](NC(=O)C(=O)c1c(Cl)c(C(=O)Nc2ccc(F)c(C#N)c2)n(C)c1Br)C(F)(F)F [Compound 29, 5-bromo-3-chloro-N-(3-cyano-4-fluoro-phenyl)-1-methyl-4-[2-oxo-2-[[(1R)-2,2,2-trifluoro-1-methyl-ethyl]amino]acetyl]pyrrole-2-carboxamide] | 0.014 µM | > 25 µM | 
CC[C@@H](C)NC(=O)C(=O)c1cc(C(=O)Nc2ccc(F)c(C#N)c2)n(C)c1C [Compound 53, N-(3-cyano-4-fluoro-phenyl)-1,5-dimethyl-4-[2-[[(1R)-1-methylpropyl]-amino]-2-oxo-acetyl]pyrrole-2-carboxamide] | 0.039 µM | > 25 µM | 
Cn1c(C(=O)Nc2ccc(F)c(C#N)c2)c(Cl)c(C(=O)C(=O)NC(C)(C)C)c1C1CC1 [Compound 48, 4-[2-(tert-butylamino)-2-oxo-acetyl]-3-chloro-N-(3-cyano-4-fluoro-phenyl)-5-cyclopropyl-1-methyl-pyrrole-2-carboxamide] | 0.022 µM | > 25 µM | 
Cc1c(C(=O)C(=O)NC2(CO)COC2)cc(C(=O)Nc2ccc(F)c(C#N)c2)n1C [Compound 71, N-(3-cyano-4-fluoro-phenyl)-4-[2-[[3-(hydroxymethyl)oxetan-3-yl]amino]-2-oxo-acetyl]-1,5-dimethyl-pyrrole-2-carboxamide] | 0.024 µM | > 25 µM | 
Cn1c(Cl)c(C(=O)C(=O)NC2(C(F)(F)F)CCOC2)c(F)c1C(=O)Nc1ccc(F)c(C#N)c1 (stereo not shown) [Compound 89, 5-chloro-N-(3-cyano-4-fluoro-phenyl)-3-fluoro-1-methyl-4-[2-oxo-2-[[3-(trifluoromethyl)tetrahydrofuran-3-yl]amino]acetyl]pyrrole-2-carboxamide] | 0.008 µM | > 25 µM | 
Cn1c(C#N)c(C(=O)C(=O)NC(C)(C)C)c(Cl)c1C(=O)Nc1ccc(F)c(C#N)c1 [Compound 49, 4-[2-(tert-butylamino)-2-oxo-acetyl]-3-chloro-5-cyano-N-(3-cyano-4-fluoro-phenyl)-1-methyl-pyrrole-2-carboxamide] | 0.034 µM | > 25 µM | 
C[C@@H](NC(=O)C(=O)c1cn(C)c(C(=O)Nc2ccc(F)c(C#N)c2)c1F)C(F)(F)F [Compound 85, N-(3-cyano-4-fluoro-phenyl)-3-fluoro-1-methyl-4-[2-oxo-2-[[(1R)-2,2,2-trifluoro-1-methyl-ethyl]amino]acetyl]pyrrole-2-carboxamide] | 0.014 µM | > 25 µM | 
Cc1c(C(=O)C(=O)NC(C)C(C)(C)O)cc(C(=O)Nc2ccc(F)c(C#N)c2)n1C (stereo not shown) [Compound 72, N-(3-cyano-4-fluoro-phenyl)-4-[2-[(2-hydroxy-1,2-dimethyl-propyl)amino]-2-oxo-acetyl]-1,5-dimethyl-pyrrole-2-carboxamide] | 0.018 µM | > 25 µM | 
Cn1cc(C(=O)C(=O)NC2(C(F)(F)F)CCOC2)c(F)c1C(=O)Nc1ccc(F)c(C#N)c1 (stereo not shown) [Compound 83, N-(3-cyano-4-fluoro-phenyl)-3-fluoro-1-methyl-4-[2-oxo-2-[[3-(trifluoro-methyl)tetrahydrofuran-3-yl]amino]acetyl]pyrrole-2-carboxamide] | 0.006 µM | 11.8 µM | 
Cc1c(C(=O)C(=O)N[C@H]2CCN(C)C[C@H]2O)cc(C(=O)Nc2ccc(F)c(C#N)c2)n1C [Compound 62, N-(3-cyano-4-fluoro-phenyl)-4-[2-[[(3R,4S)-3-hydroxy-1-methyl-4-piperidyl]amino]-2-oxo-acetyl]-1,5-dimethyl-pyrrole-2-carboxamide] | 0.23 µM | > 25 µM | 
COCC(C)(CCO)NC(=O)C(=O)c1cc(C(=O)Nc2ccc(F)c(C#N)c2)n(C)c1C (stereo not shown) [Compound 70, N-(3-cyano-4-fluoro-phenyl)-4-[2-[[3-hydroxy-1-(methoxymethyl)-1-methyl-propyl]amino]-2-oxo-acetyl]-1,5-dimethyl-pyrrole-2-carboxamide] | 0.025 µM | > 25 µM | 
Cc1c(C(=O)C(=O)NC2(C)CC(F)(F)C2)c(Cl)c(C(=O)Nc2ccc(F)c(C#N)c2)n1C [Compound 47, 3-chloro-N-(3-cyano-4-fluoro-phenyl)-4-[2-[(3,3-difluoro-1-methyl-cyclo-butyl)amino]-2-oxo-acetyl]-1,5-dimethyl-pyrrole-2-carboxamide] | < 0.004 µM | > 25 µM | 
